The results in this text go back to US9937115B2, “Oral care compositions with improved flavor” (priority 2010, dated 2018).

SMILES strings stand for the structures. Counter-ions that a name gives are not always drawn. Like-named read-outs stand apart in the source and are kept apart here.

The assay addresses T1, TRPA1 receptor (Homo sapiens, UniProt O75762).
T1 construct: expressed in transfected cells; host or cells: HEK cell line
The assay can be described thus: cell-based. Further details: activation: dose or concentration left out as unconfirmed. On the procedure:
The term “TRPA1 activator” as used herein refers to any component which at a concentration of 1 mM gives a calcium flux count of at least 1000 counts above the background level of calcium present in the cell according to the FLIPR method as discussed herein. The term “count” is defined as the change in fluorescence of the transfected cell lines due to the influx of calcium across the cell membrane, which reacts with the calcium sensitive dye present within the cells.
In order to select TRPA1 agonists that would be preferred for reducing off-tasting chemical components found in oral care compositions, calcium flux receptor activity on the TRPA1 was utilized as the criteria for selection of actives. With allyl isothiocyanate as the TRPA1 positive control, molecules that directly activated the TRPA1 receptor were screened in dimethylsulfoxide (DMSO). Pure molecules of each material were dissolved in DMSO at a concentration of 100 micormolar and then added to an HEK cell line containing the TRPA1 receptor. If they are TRPA1 agonists, they will cause a calcium flux in the cell which fluoresces and may then be measured using a FLIPR machine.

[1] abbreviates: HEK293, percentage of the control (allyl isothiocyanate) calcium count, material dissolved in DMSO at 100 micromolar, HEK cells with TRPA1, direct addition, read-out: TRPA1 Direct addition.
Setting [2] is: HEK293, percentage of the control (allyl isothiocyanate) calcium count, material dissolved in DMSO at 100 micromolar, HEK cells with TRPA1, pre-incubation, read-out: TRPA1 Pre-incubation.
Where [3] appears, read: HEK293, read-out: TRPA1 Direct addition.
Where [4] appears, read: HEK293, read-out: TRPA1 Pre-incubation.
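For TRPA1 Pre-incubation in this document: values above 100 mean more active than the control.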

T1 sequence (O75762 whole entry): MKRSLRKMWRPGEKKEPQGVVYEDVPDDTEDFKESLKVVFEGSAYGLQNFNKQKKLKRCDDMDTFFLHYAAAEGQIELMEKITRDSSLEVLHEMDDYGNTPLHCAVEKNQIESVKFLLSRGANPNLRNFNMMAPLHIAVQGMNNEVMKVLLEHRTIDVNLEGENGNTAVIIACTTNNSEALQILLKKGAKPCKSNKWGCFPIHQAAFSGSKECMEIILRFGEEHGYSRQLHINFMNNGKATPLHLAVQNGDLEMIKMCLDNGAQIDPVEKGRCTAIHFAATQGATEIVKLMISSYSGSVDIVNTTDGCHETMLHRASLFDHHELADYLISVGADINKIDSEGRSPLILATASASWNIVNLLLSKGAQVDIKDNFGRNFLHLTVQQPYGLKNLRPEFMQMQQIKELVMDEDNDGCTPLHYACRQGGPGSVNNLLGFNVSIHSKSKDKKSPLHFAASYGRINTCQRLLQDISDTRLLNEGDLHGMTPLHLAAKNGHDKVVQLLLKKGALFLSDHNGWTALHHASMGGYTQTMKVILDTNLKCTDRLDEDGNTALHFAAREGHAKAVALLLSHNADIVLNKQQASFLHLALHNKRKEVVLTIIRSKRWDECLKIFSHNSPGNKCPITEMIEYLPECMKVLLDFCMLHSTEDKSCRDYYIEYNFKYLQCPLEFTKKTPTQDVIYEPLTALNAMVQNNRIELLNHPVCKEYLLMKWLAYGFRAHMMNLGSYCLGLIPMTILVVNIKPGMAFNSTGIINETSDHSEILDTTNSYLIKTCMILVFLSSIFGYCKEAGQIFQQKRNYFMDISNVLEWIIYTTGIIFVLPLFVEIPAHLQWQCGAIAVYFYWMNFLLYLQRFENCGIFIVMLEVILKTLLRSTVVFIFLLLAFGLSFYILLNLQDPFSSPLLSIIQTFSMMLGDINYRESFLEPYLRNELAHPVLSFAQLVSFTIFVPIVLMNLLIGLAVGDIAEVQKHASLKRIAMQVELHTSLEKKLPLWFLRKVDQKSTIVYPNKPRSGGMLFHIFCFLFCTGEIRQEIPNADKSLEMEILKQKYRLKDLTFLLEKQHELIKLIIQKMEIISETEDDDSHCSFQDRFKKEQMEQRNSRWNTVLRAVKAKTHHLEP

On to `CCCCCCOC(=O)C(C)CC` (stereo not shown) [Hexyl-2-Methylbutyrate], for which, under setting [1], the activation at 100 µM was -0.38%. Besides, the activation under setting [2] worked out at 67.1%.
Take `C=C1CCC2CC1C2(C)C` (stereo not drawn) [Beta-Pinene]: the activation at 100 µM under setting [1] is -6.02%. Also, under setting [2], the activation came out at 73.6%.
In the case of `CCCCCCOC(=O)CC` [Hexyl Propionate], the activation at 100 µM under setting [1] was -15.9%. Further, the activation under setting [2] was determined as 78.9%.
On to `CC1=CCC2CC1C2(C)C` (stereo not drawn) [Alpha-Pinene], for which the activation at 100 µM under setting [1] is -3.07%. In addition, under setting [2], the activation stood at 86.6%.
On to `CC(CC=O)CC(C)(C)C` (stereo not shown) [3,5,5-Trimethyl Hexanal], for which, under setting [1], the activation at 100 µM worked out at 75.7%. Besides, the activation under setting [2] was found to be 92.2%.
Regarding `CC=CC(=O)C(C)CC` (stereo not shown) [5-Methyl-2-Hepten-4-one], under setting [1], the activation at 100 µM was 15.5%. Also, under setting [2], the activation amounted to 87.8%.
For `CCCCCC(=Cc1ccccc1)C(OC)OC` [Alpha-Amylcinnamaldehyde Dimethyl acetal], in that order: -2.4% and -0.12%.
On to `O=COCc1ccccc1` [Benzyl Formate], for which the activation under setting [1] was -3.01% and the activation under setting [2] was determined as 75.3%.
Turning to `CC/C=C\CCOC(=O)CCCCC` [cis-3-Hexenyl Hexanoate], the activation at 100 µM under setting [1] amounted to 0.08%. Besides, under setting [2], the activation is 106%.
For `CCC(=O)OCc1ccccc1` [Benzyl Propionate], in that order: 0.52% and 63%.
Taken in the same sequence, the figures for `CCCCCCCCCC(C)=O` [Material 2-Undecanone, 2-Undecanone] were 10.7% and 65.9%.
For `CCCCCC(=O)O` [Hexanoic Acid], in that order: -0.4% and 67.2%.
For `CCCCCCCCCCCC(=O)OCC` [Ethyl Laurate], the activation at 100 µM under setting [1] amounted to 0.12%. Also, under setting [2], the activation came to 75.8%.
For `CC(=O)OC(C)c1ccccc1` (stereo not drawn) [Alpha-Methylbenzyl Acetate], under setting [1], the activation at 100 µM is 1.45%. Further, the activation under setting [2] stood at 70.8%.
For `CC(=O)OC1CCCCC1` [Cyclohexyl Acetate], in that order: -1.27% and 68.8%.
Consider `C=Cc1ccc(O)c(OC)c1` [2-Methoxy-4-Vinylphenol], for which the activation at 100 µM under setting [1] was 1.16%. Besides, the activation under setting [2] was 71.4%.
For `CC(=O)OCC=Cc1ccccc1` [Cinnamyl Acetate], in that order: -0.13% and 70.1%.
On to `CC1=CCC(C(C)(C)O)CC1` (stereo not drawn) [Alpha-Terpineol], for which, under setting [1], the activation at 100 µM turned out to be 15.8%. Further, the activation under setting [2] was 60.5%.
For `O=C([O-])C(=O)[O-].[Zn+2]` [Zinc Oxalate], the “TRPA1 Direct addition” value came out at 40.18% and the “TRPA1 Pre-incubation” value worked out at 18.11%.
For the compound `CC/C=C\CCOC(=O)CCC` [cis-3-Hexenyl Butyrate], the activation at 100 µM under setting [1] is -0.46%. For the same compound, under setting [2], the activation was determined as 87.9%.
For `CC1=CC(=O)[N-]S(=O)(=O)O1.[K+]` [Acesulfame K], the “TRPA1 Direct addition” value is recorded as −0.12% and the “TRPA1 Pre-incubation” value amounted to 95.57%.
`COC(OC)c1ccccc1` [Benzaldehyde Dimethyl Acetal]: the activation by setting is: under setting [3], -0.68%; under setting [4], 120%.
Take `CSCCCO` [3-(Methylthio) Propanol]: the activation at 100 µM under setting [1] is -0.92%. Also, the activation under setting [2] was 73.1%.
Turning to `CCc1ncc(C)nc1CC` [2,3-Diethyl-5-Methylpyrazine], the activation at 100 µM under setting [1] turned out to be 0.99%. Moreover, under setting [2], the activation came to 76.9%.
Take `CC(C)CCO` [Isoamyl Alcohol]: the activation was -0.15% under setting [3] and 70.9% under setting [4].
With `CCC=C1OC(=O)c2ccccc21` [3-Propylidenephthalide], the activation at 100 µM under setting [1] was 116%. Further, the activation under setting [2] is 6.21%.
Consider `CCCC(=O)OC/C=C(\C)CCC=C(C)C` [Geranyl Butyrate], for which the activation at 100 µM under setting [1] stood at 0.12%. For the same compound, under setting [2], the activation is 61.5%.
For `CCCC(=O)C(C)=O` [2,3-Hexanedione], in that order: -0.19% and 101%.
As to `CCCCCCCCCC(C)C=O` (stereo not shown) [2-Methylundecanal], the activation at 100 µM under setting [1] came out at 0.82%. For the same compound, the activation under setting [2] amounted to 79.8%.
Turning to `CC(C)CC=C(C=O)c1ccccc1` [5-Methyl-2-Phenyl-2-Hexenal], the activation is, setting by setting: under setting [3], 132%; under setting [4], -11.7%.
For the compound `[O]=[Zn]` [Zinc Oxide], the “TRPA1 Direct addition” value was −3.73% and the “TRPA1 Pre-incubation” value is recorded as 71.09%.
For the compound `CC(O)C(=O)[O-].CC(O)C(=O)[O-].[Mg+2]` (stereo not shown) [Magnesium Lactate], the “TRPA1 Direct addition” value is reported as −4.49% and the “TRPA1 Pre-incubation” value came to 58.12%.
In the case of `CC(C)=CCCC(C)CCOC=O` (stereo not shown) [Citronellyl Formate], the activation at 100 µM under setting [1] was -0.57%. The activation under setting [2] is 89.5%.
For `CCCCCCOC(C)=O` [Hexyl Acetate], in that order: -0.01% and 49.1%.
Taken in the same sequence, the figures for `CC(=O)OC(C)(C)Cc1ccccc1` [Alpha, Alpha Dimethylphenethyl Acetate] were -3.2% and 72%.
For `CCCCCC=CC=CC(=O)OCCC` [Propyl 2,4-Decadienoate], the activation at 100 µM under setting [1] is -15.7%. Further, the activation under setting [2] amounted to 105%.
As to `C=CCOC(=O)CCCCC` [Allyl Hexanoate], the activation at 100 µM under setting [1] stood at 0.75%. The activation under setting [2] turned out to be 88.1%.
With `CCCCCCC(C)=O` [Material 2-Octanone, 2-Octanone], the activation at 100 µM under setting [1] is -17.1%. Further, the activation under setting [2] turned out to be 93.3%.
Taken in the same sequence, the figures for `O=C(c1ccccc1)C(O)c1ccccc1` (stereo not shown) [Benzoin] were -0.5% and 56.2%.
For `CC1=C(O)C(=O)OC1C` (stereo not shown) [4,5-Dimethyl-3-Hydroxy-2,5-Dihydrofuran-2-one], in that order: 0.18% and 89.1%.
Taken in the same sequence, the figures for `CCCCCOC(=O)CCC` [Amyl Butyrate] were -2.64% and 75.9%.
Regarding `CCOC(=O)Cc1ccccc1` [Ethyl Phenylacetate], the activation under setting [3] is -0.28% and the activation under setting [4] was 76.2%.
For the compound `CCCCCCCO` [Heptyl Alcohol], under setting [1], the activation at 100 µM stood at 0.59%. For the same compound, the activation under setting [2] amounted to 70.7%.
Regarding `C=CCOC(=O)c1ccccc1N` [Allyl anthranilate], under setting [1], the activation at 100 µM worked out at 0.29%. The activation under setting [2] amounted to 99.5%.
For the compound `CC(=O)OC/C=C(\C)CCC=C(C)C` [Geranyl Acetate], the activation at 100 µM under setting [1] came out at 0.33%. The activation under setting [2] stood at 63.2%.
Taken in the same sequence, the figures for `CCCCCCCCCCO` [Material 1-Decanol, 1-Decanol] were -1.41% and 59.8%.
Regarding `CCCCCCCCCCCC(C)=O` [2-Tridecanone], under setting [1], the activation at 100 µM was 7.21%. For the same compound, under setting [2], the activation was 60.8%.
As for `Cc1cnc(C)c(C)n1` [2,3,5-Trimethyl-pyrazine], the activation at 100 µM under setting [1] was -1.13%. For the same compound, the activation under setting [2] is 48.8%.
With `CCOCc1ccccc1` [Benzyl Ethyl Ether], under setting [1], the activation at 100 µM was -2.24%. The activation under setting [2] turned out to be 66.2%.
For `CCCCCC/C=C/CO` [Trans-2-Nonen-1-ol], under setting [1], the activation at 100 µM is -0.49%. Moreover, the activation under setting [2] turned out to be 115%.
